Results taken from the CheMixHub viscosity set.

Assay: xn = mol fraction of the nth substance listed

CC(CC(C)(C)C)CP(=O)(O)CC(C)CC(C)(C)C (stereo not given) + c1ccccc1
298.15 K, 101 kPa
Settings	viscosity [mPa·s]
x1 = 0.0058	0.631
x1 = 0.0104	0.661
x1 = 0.0122	0.678
x2 = 0.1178	93.82
x2 = 0.2304	71.32
x2 = 0.3732	46.06
x2 = 0.5517	20.77
x2 = 0.6956	8.438
x2 = 0.784	4.43
x2 = 0.7966	4.061
x2 = 0.8411	2.952
x2 = 0.8809	2.165
x2 = 0.8838	2.106
x2 = 0.9333	1.332
x2 = 0.9375	1.29
x2 = 0.9656	0.94
x2 = 0.9738	0.83

CCOCCO + c1ccccc1
viscosity [mPa·s], 101 kPa
Settings	298.15 K	308.15 K
x1 = 0.0585	0.632	0.548
x1 = 0.1533	0.686	0.587
x1 = 0.2518	0.752	0.635
x1 = 0.3637	0.841	0.7
x1 = 0.4521	0.923	0.76
x1 = 0.5048	0.979	0.8
x1 = 0.5525	1.034	0.839
x1 = 0.6521	1.164	0.931
x1 = 0.7508	1.317	1.039
x1 = 0.8521	1.505	1.17
x1 = 0.9547	1.734	1.328

CNC(C)=O + c1ccccc1
308.15 K, 101.33 kPa
Settings	viscosity [mPa·s]
x1 = 0.0294	0.4955
x1 = 0.226	0.8005
x1 = 0.3331	1.021
x1 = 0.437	1.255
x1 = 0.5349	1.51
x1 = 0.6329	1.78
x1 = 0.7301	2.099
x1 = 0.823	2.452
x1 = 0.9747	3.132

N#C[C-](C#N)C#N.OCCC[n+]1ccccc1 + c1ccsc1
101 kPa
Settings	viscosity [mPa·s]
298.15 K, x1 = 0.5955	36.55
313.15 K, x1 = 0.9377	39.55
